# Laboratory results as given in paper PMC4140852 (PLoS Pathogens, 2014).
# Target: T1, APRc (rAPRc activation product, rAPRc105-231) (Rickettsia conorii, UniProt Q92FY8)
# T1 construct: gene RC1339
# Type: biochemical
# T1 sequence (Q92FY8 105-231 limits assumed): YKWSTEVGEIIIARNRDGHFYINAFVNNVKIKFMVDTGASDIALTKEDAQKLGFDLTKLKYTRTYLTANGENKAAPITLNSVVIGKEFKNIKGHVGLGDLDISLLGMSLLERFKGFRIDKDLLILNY
structure (smiles),measurement,value
CC(C)(C)NC(=O)[C@@H]1CN(Cc2cccnc2)CCN1C[C@@H](O)C[C@@H](Cc1ccccc1)C(=O)N[C@H]1c2ccccc2C[C@H]1O [indinavir],% inhibition at 0.25 mM,incubation with indinavir resulted in a near complete inhibition of APRc
